From a melting point compilation (Tetko et al.; mined from patent text by program, amines drawn as free bases though some values may be those of a salt)

Row | melting point [°C] | Compound
1 | 154 to 156 | CC(=O)OC1CC2(CCN(CCCC(=O)c3ccc(F)cc3)C2)c2ccccc21 (stereo unspecified)
2 | 110 to 112 | CCCc1cc(Br)c2oc(Cc3ccc(OC)cc3)c(C)c2c1O
3 | 181 to 192 | NC(Cc1nc2cc(Cl)ccc2nc1CP(=O)(O)O)C(=O)O (stereo unspecified)
4 | 97 | CCCc1cc(C(O)(CC)CC)ccc1-c1cc(OCc2ccc(CO)c(CO)c2)ccc1C
5 | 132 to 133 | CCN1CCCC1CNC(=O)c1cc(NS(C)(=O)=O)c(C)cc1OC (stereo unspecified)
6 | 150 | CC(=O)OC1CSC(Sc2ccc(-c3ccc(C#N)cc3)cc2)C(OC(C)=O)C1OC(C)=O (stereo unspecified)
7 | 166 to 170 | Cc1ccc2c(c1)N(CC(=O)NC(C)(C)C)C(=O)C(Br)CC2CC1CCCCC1 (stereo unspecified)
8 | 177 to 179 | N#Cc1cc(=O)c(-c2ccccc2)co1
9 | 201 to 203 | O=C(COc1ccccc1)Nc1ccccc1C(=O)O
10 | 156 | CC1=NNC(C)=C(C(=O)NN)C1c1ccccc1 (stereo unspecified)
11 | 108 to 109 | COC(=O)/C=C\c1cnn(C)c1-c1ccc(F)cc1
12 | 200 to 203 | O=C(NC1=NCCCC1)Nc1ccc(Cl)cc1
13 | 242 to 244 | COc1ccc(-c2cc(S(N)(=O)=O)sc2-c2ccc(OC)c(S(N)(=O)=O)c2)cc1S(N)(=O)=O
14 | 114 to 117 | NCc1ccc2ccnc(N)c2c1
15 | 177 to 178 | CC1=C(C(=O)Nc2cnc3c(C)cc(C)cc3c2-c2ccccc2Cl)Sc2ccccc2N1
16 | 166 to 168 | Cc1cc(=O)n2cccc(OCc3ccccc3Cl)c2n1
17 | 108 to 110 | NC(=O)COC(=O)c1c(F)cccc1F
18 | 224 to 226 | Cn1ncc2c1CSc1cn[nH]c1-2
19 | 135 to 138 | NC(=O)C(c1ccccc1)(c1ccccc1)C1CCN(Cc2ccccc2)C1 (stereo unspecified)
20 | 155 to 156 | COC(=O)c1cc2c3ccccc3nc(C)n2n1
21 | 85.5 to 87 | CC(C)(N=C=O)c1ccc2cc(C(C)(C)N=C=O)ccc2c1
22 | 278 | Cn1ncc2[nH]c3ccc(Cc4ccccc4Cl)cc3c(=O)c21
23 | 58 to 63 | CCS(=O)(=O)c1cccnc1S(=O)(=O)NC(C)(C)C
24 | 66 to 68 | Cn1nc([N+](=O)[O-])cc1CO

Row | melting point [°C] | Compound
25 | 215 to 216 | CCCOc1ccc(CCC(=O)O)cc1-c1nc2c(C)cccc2c(=O)[nH]1
26 | > 250 | Cn1c(C(F)(F)F)cc(=O)n(-c2ccc3snc(-c4nc5ccccc5[nH]c4=O)c3c2)c1=O
27 | 167 to 168 | Cc1ccccc1NC(=O)CN1CC2CCC(C1)N2S(=O)(=O)c1cccc2nonc12
28 | 145 | C[C@H](CSC(=O)c1ccccc1)C(=O)N1C(=O)N(Cc2ccccc2)C[C@H]1C(=O)O
29 | 182 to 183 | CCOC(=O)c1nc2sc(C(C)C)cc2c(=O)[nH]1
30 | 217 to 218 | O=C(N[C@H](Cc1ccc(C(F)(F)F)cc1)[C@@H](O)c1ccccc1)c1ccc(F)c2ccccc12 (racemic)
31 | 122 to 123 | COc1ccc(-n2cc(-c3cccc(C(=O)O)n3)cn2)cc1
32 | 120 to 122 | Cc1c(Br)cccc1N1Cc2ccc(C(C)(C)C)cc2C1=O
33 | 75 to 78 | CC(C)COc1ccc(C(=O)N/C(=C\c2ccc(OC(F)F)cc2)C(=O)NCCO)cc1
34 | 123 to 126 | CCN1C(=O)C(C)(C)C(=O)N(C)c2cc(CN(CCn3ccc4oc(COC)cc4c3=O)Cc3cccnc3C)ccc21
35 | 266 to 268 | N=C(N)c1ccc(Cl)cc1
36 | 108 to 112 | Cc1cccc(-c2[nH]c(C(C)C)nc2-c2cccc(-c3cccc(NS(C)(=O)=O)c3)c2)n1
37 | 85 to 88 | CC(O)C1=C(c2ccccc2)C(=O)N(C(C)(C)C(=O)Nc2cc(Cl)cc(Cl)c2)CO1 (stereo unspecified)
38 | 319 to 320 | COC(=O)NC(=O)Nc1nc2c(Cl)cccc2s1
39 | 172 to 175 | O=S(=O)(CC1CCCCC1)c1nc[nH]n1
40 | 148 | O=C(N[C@@H]1CCN(CCNc2ncccn2)C[C@H]1O)c1cccc(C(F)(F)F)c1 (relative stereo)
41 | 74 to 75 | Cc1cccc(C)c1N1CC(C)N(c2c(C)cccc2C)C1=NC(=O)OCc1ccccc1 (stereo unspecified)
42 | > 300 | CNC1(C)CN(c2cc3c(cc2F)c(=O)c(C(=O)O)cn3C2CC2)C1
43 | 238 to 240 | N=C(N)c1ccc(C(=O)N[C@@H](CO)Cc2ccc(OCC(=O)O)cc2)cc1
44 | 258 to 259 | CC(C)(C)NS(=O)(=O)c1cccc(NC(=O)c2cnn3c(C4CC4)cc(-c4ccc(C(F)(F)F)cc4)nc23)c1
45 | 160 to 161 | Cc1cc(C2=NNC(=O)CC2)ccc1CCCCNC(=O)c1cccnc1
46 | > 200 | C=CC1(S(=O)(=O)CCS(=O)(=O)CC(O)CS(=O)(=O)CCCl)C=CC=CC1 (stereo unspecified)
47 | 204 to 205 | COc1cc(COc2nn(-c3ccccc3)cc2/C=C/c2csc(CO)n2)ccc1OCc1nc(-c2ccc(CC(=O)O)cc2)oc1C
48 | 122 to 124 | C[C@@H]1Cc2ccsc2[C@H](C)N1CCNC(=O)c1ccc(C#N)cc1 (relative stereo)

Row | melting point [°C] | Compound
49 | 172 to 174 | NC(=O)Nc1ccc2c(c1)C(CN1CCC(c3ccc(F)cc3)CC1)CC2 (stereo unspecified)
50 | 152 | CC#CCOc1ccc(SC(C(=O)NO)c2ccc(Cl)cc2)cc1 (stereo unspecified)
51 | 256 to 258 | COC(=O)c1nc(-c2ccc(Cl)c(S(C)=O)c2F)nc(N)c1Cl (stereo unspecified)
52 | 132 to 134 | CCC(O)(c1ccc(O)cc1)c1cccc(Cl)c1 (stereo unspecified)
53 | 71 to 73 | CCCC[C@]1(CC)CS(=O)(=O)c2cc3c(cc2[C@@H](c2ccccc2)N1)OCO3
54 | > 280 | CCOc1cc2c(=O)cc(C(=O)O)[nH]c2ccc1=O
55 | 39 to 42 | O=[N+]([O-])c1cc(F)c(Cl)cc1Cl
56 | 83 to 103 | COC(=O)Cc1ccc(OCC(C)NCC(O)c2cccc(Cl)c2)c(Cl)c1 (stereo unspecified)
57 | 206 to 207 | COCc1ccn2c(C)c(CCc3ccc4nc(N)oc4c3)nc2c1
58 | 164 to 166 | CCCc1ccccc1OCC(O)COc1ccc2oc(C(=O)O)cc(=O)c2c1 (stereo unspecified)
59 | 170 to 172 | CCC(C)(C)C(=O)OCc1cccc(C)c1OCCOc1ccc([C@H](N)C(=O)O)cc1
60 | 215 to 217 | O=Cc1ccc(OC(F)F)c2oc3ccncc3c12
61 | 165 to 167 | COCCOc1ccc(/C=C/C(=O)NS(=O)(=O)c2cccnc2)c(Oc2ncc(C(F)(F)F)cc2Cl)c1
62 | 46 to 47 | Cc1cc(C)cc(SCC(=O)c2ccc(C(C)C)cc2)c1
63 | 256 to 258 | O=C(O)c1cn2c(n1)COc1ccccc1-2
64 | 140 to 141 | CSc1nc(C)ccc1NC(=O)CCCCCSc1nc2ccccc2o1
65 | 244 to 245 | CS(=O)(=O)c1cc(O)ccc1/C=C/c1ccc(O)cc1
66 | 238 to 240 | CNC(=O)c1ccccc1Nc1nc(Nc2ccc3c(c2)CCCC(=O)N3C)ncc1Br
67 | 99 | COC(=O)C=Cc1cc(C(=O)O)ccc1NC(=O)NC(=O)c1cc(F)c(F)cc1Cl
68 | 223 to 224 | Cc1cccc(N(c2cccc(C)c2)c2c(N(c3cccc(C)c3)c3cccc(C)c3)c3ccccc3c3ccccc23)c1
69 | 140 to 142 | COCC(C)(C)C(=O)O[C@H]1C[C@H](O)C=C2C=C[C@H](C)[C@H](CC[C@@H]3C[C@@H](O)CC(=O)O3)[C@H]21
70 | 148 to 150 | CCCCN(Cc1ccc(-c2ccccc2-c2nnn[nH]2)cc1)c1nc(C)cc(C)n1
71 | 80 to 95 | CCCCC(=O)Nc1ccc([N+](=O)[O-])cc1Cl
72 | 144 | COc1cc(N)c(I)cc1C(=O)NC1(C)CCN(CCCOc2ccc(F)cc2)CC1

Row | melting point [°C] | Compound
73 | 133 to 135 | CCOC(=O)C1(C(=O)OCC)CCC=C2C1CCC1=Cc3c(cnn3-c3ccc(F)cc3)CC12C (stereo unspecified)
74 | 183 to 185 | COC(=O)[C@H]1CC[C@H](N2CCN(c3ccc(C4CCN(C(=O)C(F)(F)F)CC4)cc3)C2=O)CC1
75 | 229 | O=C(NC[C@H]1CN(c2ccc(N3CCCC3=O)cc2)C(=O)O1)c1ccc(Cl)s1
76 | 48 to 50 | CCCCCCCCCCCCCCCCCCOc1cc(OCCCOc2cccc(Br)c2)cc(N(CC(=O)OC)CC(=O)OC)c1
77 | 235 to 236 | COc1cc2c(Nc3ccc(Oc4cccnc4)cc3)c(C#N)cnc2cc1F
78 | 79 to 86 | CSCC(C)(C)NC(=O)c1c(I)cccc1C(=O)Nc1ccc(C(C)n2ccc(C(F)(F)F)n2)cc1C (stereo unspecified)
79 | 183 to 186 | CC(C)(C)c1cc(C(C)(C)C)c2op(Cl)oc3c(C(C)(C)C)cc(C(C)(C)C)cc3c2c1
80 | 218 to 220 | CC(=O)Nc1nc(CCc2ccc(NC3=NCCS3)cc2)cs1
81 | 185 to 186 | O=S(=O)(NCc1ccnc2ccccc12)c1ccc(-c2ccc(Cl)cc2)s1
82 | 184 to 186 | CS(=O)Cc1cccc(-c2nc(=O)c3ccccc3s2)n1 (stereo unspecified)
83 | 114 | OCCNCC(O)c1cccc(OCc2ccccc2)c1 (stereo unspecified)
84 | 108 to 110 | Cn1nc(-c2cccs2)n(C)c1=O
85 | 252 to 253 | O=P(COc1ccc2ccccc2c1-c1c(OCP(=O)(c2ccccc2)c2ccccc2)ccc2ccccc12)(c1ccccc1)c1ccccc1
86 | 233 | O=C(Nc1nc(C(F)(F)F)co1)C1c2ccccc2Oc2c(F)cccc21 (racemic)
87 | 280 to 282 | Cc1ccc(NC(=O)N2CCN(C(=O)c3ccc(Nc4ccnc5cc(C(F)(F)F)ccc45)cc3)CC2)cc1
88 | 258 | O=C(Nc1cc2nc(-c3ccc(C(=O)C4CCCCC4)cc3)[nH]c2cn1)c1ccccn1
89 | > 200 | CCn1c(C)nc(N2CCc3nc(N)sc3CC2)c([N+](=O)[O-])c1=O
90 | 156 to 158 | O=C(Nc1ccc(Cl)c(Cl)c1)NS(=O)(=O)c1ccc2c(c1)CCC2
91 | 175 to 178 | O=C(C1CCc2nc[nH]c2C1)N1CCc2ccccc21 (stereo unspecified)
92 | 168 to 186 | CCCCNS(=O)(=O)CC(O)C(O)C(CC1CCCCC1)NC(=O)c1ccncc1 (stereo unspecified)
93 | 130 to 132 | CN1CCOc2cc([N+](=O)[O-])ccc2C1=O

Row | Compound | melting point [°C]
94 | Cc1cccc2c1CCCC2c1c[nH]cn1 (stereo unspecified) | 135
95 | Cc1nc(C(=O)NN)c2n1-c1ccc(Cl)cc1C(c1ccccc1F)=NC2 | 235 to 237
96 | CCOC(=O)NNC(=O)Cl | 77 to 80
